The target in one assay is T1, CRF receptor (Rattus norvegicus, UniProt P35353).
T1 construct: the cerebral cortex was removed and the tissue homogenized; from tissue; host or cells: cerebral cortex membranes of male Sprague-Dawley rats
T1 sequence (P35353 24-415): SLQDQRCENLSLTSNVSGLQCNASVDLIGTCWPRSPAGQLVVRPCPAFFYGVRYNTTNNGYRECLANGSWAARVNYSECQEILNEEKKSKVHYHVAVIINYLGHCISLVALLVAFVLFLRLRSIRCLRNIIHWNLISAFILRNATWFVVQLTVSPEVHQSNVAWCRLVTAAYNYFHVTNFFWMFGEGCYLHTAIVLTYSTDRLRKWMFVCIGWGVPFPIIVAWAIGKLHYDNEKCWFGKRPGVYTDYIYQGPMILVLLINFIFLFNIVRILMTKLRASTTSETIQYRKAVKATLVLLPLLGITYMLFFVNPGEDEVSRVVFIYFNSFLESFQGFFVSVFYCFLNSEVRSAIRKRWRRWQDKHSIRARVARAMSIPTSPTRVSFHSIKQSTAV
Nature of the assay: In vitro receptor binding: inhibition of specific binding of [125I]tyrosine-oCRF to rat cerebral cortex membranes. Particulars: [125I]Tyr-oCRF 50-100 pM, 2 hours at room temperature. How it is done: The potency of the compounds of the invention as inhibitors of the specific binding of radiolabeled CRF to rat cerebral cortex membranes was examined using a standard in vitro radioligand binding technique. […] The homogenate was centrifuged at 48,000×g for 10 minutes at 4° C. The supernatant was removed, the tissue pellet suspended in the original volume of fresh homogenization buffer using a Polytron and centrifuged as before. […] Incubation buffer consists of 50 mM Hepes (pH 7.0 at 22° C.) containing 10 mM MgCl2, 2 mM EGTA, 0.1 mM bacitracin, 100 KIU (kallikrein inhibitor units)/mL aprotinin and 0.1% BSA (bovine serum albumin). […] Nonspecific binding was determined in the presence of 1 μM oCRF. The binding reaction was allowed to proceed for 2 hours at room temperature. Bound radioligand was separated from the incubation medium by centrifugation in a Beckman microfuge for 5 minutes at 12,000×g. The supernatant was aspirated and the resulting pellet was washed with 1 mL of cold phosphate buffered saline (pH 7.2) containing 0.01% of Triton X-100.
Tyr-oCRF to rat cortical membranes was determined on at least three separate occasions using 8-10 concentrations of each compound and utilizing triplicate incubations. The IC50 and apparent Hill coefficient for each compound were calculated using a computer-assisted log-logit analysis.

Assay [1] has as its target CRF-stimulated adenylate cyclase. Nature of the assay: Inhibition of CRF-stimulated adenylate cyclase activity (rat frontal cortex). The assay is classed as biochemical. To be noted: Table I, Formula I; 1 μM oCRF; 37° C., 10 minutes. The text has this:
CRF antagonist activity is established by the ability of the compounds to antagonize CRF-stimulated adenylate cyclase activity, it having been established that CRF receptors are coupled to a guanine nucleotide regulatory protein that activates adenylate cyclase [G. Aguilera et al., Neuroendocrinology, 43, 79 (1986); G. Battaglia et al., Synapse, 1, 572 (1987)].
Male Sprague-Dawley rats (175-250 g) were sacrificed by decapitation, the frontal cortex was dissected and homogenized in 30 volumes (w/v) of ice-cold buffer (50 mM Tris HCl, 10 mM MgCl2, 2 mM EGTA; pH 7.2 at 22° C.). The homogenate was centrifuged at 40,000×g for 3 minutes (4° C.), the supernatant discarded and the pellet resuspended in original volume of fresh homogenization buffer. Following centrifugation at 40,000×g for 30 minutes, the resulting pellet was suspended to a tissue concentration of 20 mg original wet weight of tissue per mL (approximately 40-60 μg protein/mL). For determination of basal adenylate cyclase activity, assays are carried out at 37° C. for 10 minutes in 250 μL of buffer containing 100 mM Tris HCl, 10 mM MgCl2, 0.4 mM EGTA, 0.1% BSA, 1 mM isobutylmethylxanthine (IBMX), 3 units/tube phosphocreatine kinase, 5 mM creatine phosphate, 100 μM guanosine. Maximal stimulation of adenylate cyclase activity was accomplished by the addition of 10^-6 M oCRF. Stimulated enzyme activity generally represented a 75-95% increase over basal levels. Reactions were initiated by the addition of tissue and terminated by the addition of 150 μL of 50 mM Tris HCl, 45 mM ATP, 2% sodium dodecyl sulfate (SDS), and [^3 H] cAMP (approximately 40,000 dpm). The [^3 H]cAMP was added to each assay tube to monitor recovery of cAMP during subsequent chromatography steps. Separation of [^32 P]cAMP from [^32 P]ATP was accomplished by sequential elution over Dowex and alumina columns. The eluate (4 mL) was collected in 20 mL scintillation vials to which 8 mL of Beckman EP fluor was added. Vials were shaken for 30 minutes prior to measuring ^3 H and ^32 P by scintillation counting. All data were fed directly from the liquid scintillation counter via RS232 port to a VAX 8300 computer. Individual data points were expressed as pmoles of cAMP formed/10 minutes/mg protein. Protein content of tissue samples was measured using the BioRad method with bovine serum albumin serving as the standard.
Determination of antagonist activity was accomplished by addition of at least six concentrations of the compound (10^-8 -10^-4 M), evaluated in triplicate, in the presence of a maximally stimulating concentration of oCRF (1 μM). IC50 values were derived from a log-logit transformation of the data on a Vax 8300.

The mark [2] stands for this setting: Inhibition of CRF Binding, Rat Cerebral Cortex Membrane, IC50, Table I, Formula I.
Where [3] appears, read: Table I, Formula I, read-out: Inhibition of CRF Binding, Rat Cerebral Cortex Membrane, IC50.
[4] abbreviates: Table II, Formula II (disulfides), read-out: Inhibition of CRF Binding, Rat Cerebral Cortex Membrane, IC50.

Molecules are shown by their SMILES. Counter-ions that a name gives are not always drawn. Like-named read-outs stand apart in the source and are kept apart here.

Consider 23 molecules from patent US5063245A, “Corticotropin-releasing factor antagonism compounds” (Nova Pharmaceutical Corporation, priority 1990, dated 1991).

As for `Cc1c(SC#N)c(=O)n(C)n1Cc1ccccc1` [2-benzyl-1,3-dimethyl-5-oxo-3-pyrazolin-4-yl thiocyanate, hemifumarate], the IC50 was found to be 33.6 µM on CRF receptor (setting [2]) and 40.1 µM in assay [1]. On to `Cc1c(SC#N)c(=O)n(-c2c(Cl)cccc2Cl)n1C` [Formula I: 2,6-Cl2 Ph, CH3, CH3, SCN, 2,3-dimethyl-5-oxo-1-(2,6-dichlorophenyl)-3-pyrazolin-4-yl thiocyanate], for which the values for the IC50 (on CRF receptor (setting [2]); in assay [1]) were 18.9 µM and 29.9 µM, respectively. With `Cc1c(SC#N)c(=O)n(-c2ccc3ccccc3c2)n1C` [Formula I: 2-Naphthyl, CH3, CH3, SCN, 2,3-dimethyl-1-naphthyl-5-oxo-3-pyrazolin-4-yl thiocyanate], the IC50 on CRF receptor (setting [3]) amounted to 3.8 µM. Consider `CCn1c(C)c(SC#N)c(=O)n1-c1ccc(Cl)c(Cl)c1` [Formula I: 3,4 Cl2 Ph, C2 H5, CH3, SCN, 2-ethyl-3-methyl-5-oxo-1-(3,4-dichlorophenyl)-3-pyrazolin-4-yl thiocyanate], for which the values for the IC50 (on CRF receptor (setting [2]); in assay [1]) were 4.9 µM and 1.4 µM, respectively. Take `Cc1c(SC#N)c(=O)n(-c2cccc(C#N)c2)n1C` [Formula I: 3-CNPh, CH3, CH3, SCN, 2,3-dimethyl-5-oxo-1-(3-cyanophenyl)-3-pyrazolin-4-yl thiocyanate]: the concentration for half-maximal inhibition (IC50) at CRF receptor (setting [3]) was found to be 15.5 µM; in assay [1], 6.9 µM. For `CCn1c(C)c(SC#N)c(=O)n1-c1cccc(Cl)c1` [Formula I: 3-ClPh, C2 H5, CH3, SCN, 2-ethyl-3-methyl-5-oxo-1-(3-chlorophenyl)-3-pyrazolin-4-yl thiocyanate], in that order: 7.4 µM and 6.9 µM. Taken in the same sequence, the figures for `Cc1ccc(-n2c(=O)c(SC#N)c(C)n2C)cc1` [Formula I: 4-CH3 Ph, CH3, CH3, SCN, 2,3-dimethyl-5-oxo-1-(4-methylphenyl)-3-pyrazolin-4-yl thiocyanate] were 8.6 µM and 9.1 µM.

`CCn1c(C)c(SC#N)c(=O)n1-c1ccc(S(C)(=O)=O)cc1` [Formula I: 4-CH3 SO2 Ph, C2 H5, CH3, SCN, 2-ethyl-3-methyl-5-oxo-1-(4-methylsulfonylphenyl)-3-pyrazolin-4-yl thiocyanate]: the IC50 at CRF receptor (setting [3]) was determined as 17 µM; in assay [1], 11.4 µM.

Consider `Cc1c(SC#N)c(=O)n(-c2ccc(I)cc2)n1C` [Formula I: 4-IPh, CH3, CH3, SCN, 2,3-dimethyl-5-oxo-1-(4-iodophenyl)-3-pyrazolin-4-yl thiocyanate], for which, on CRF receptor (setting [3]), the IC50 was determined as 6.5 µM.

`CCn1c(C)c(SC#N)c(=O)n1-c1ccc([N+](=O)[O-])cc1` [Formula I: 4-NO2 Ph, C2 H5, CH3, SCN, 2-ethyl-3-methyl-5-oxo-1-(4-nitrophenyl)-3-pyrazolin-4-yl thiocyanate]: the results for the IC50 (at CRF receptor (setting [3]); in assay [1]) were 5.7 µM and 2 µM, respectively. Consider `CCc1c(SC#N)c(=O)n(-c2ccc(OC)cc2)n1C` [Formula I: 4-OMePh, CH3, C2 H5, SCN], for which the IC50 at CRF receptor (setting [3]) came out at 9.3 µM; in assay [1], 11.9 µM.

Turning to `CCc1c(SC#N)c(=O)n(CC)n1CC` [Formula I: C2 H5, C2 H5, C2 H5, SCN, 1,2,3-triethyl-5-oxo-3-pyrazolin-4-yl thiocyanate], the results for the IC50 (at CRF receptor (setting [3]); in assay [1]) were 67 µM and 45 µM, respectively. Consider `CCn1c(C)c(SC#N)c(=O)n1CC` [Formula I: C2 H5, C2 H5, CH3, SCN, 1,2-diethyl-3-methyl-5-oxo-3-pyrazolin-4-yl thiocyanate], for which the concentration for half-maximal inhibition (IC50) at CRF receptor (setting [2]) is 111 µM; in assay [1], 29.4 µM. For the molecule `Cc1c(SC#N)c(=O)n(C2CCCCC2)n1C` [Formula I: C6 H11, CH3, CH3, SCN, 1-cyclohexyl-2,3-dimethyl-5-oxo-3-pyrazolin-4-yl thiocyanate], the concentration for half-maximal inhibition (IC50) at CRF receptor (setting [3]) came out at 15 µM; in assay [1] it was 35.2 µM.

As to `CCn1c(C)c(SC#N)c(=O)n1Cc1ccccc1` [Formula I: CH2 Ph, CH2 CH3, CH3, SCN, 1-benzyl-2-ethyl-3-methyl-5-oxo-3-pyrazolin-4-yl thiocyanate], the IC50 on CRF receptor (setting [3]) was found to be 17 µM; in assay [1], 39.9 µM. Regarding `Cc1c(SC#N)c(=O)[nH]n1-c1ccc([N+](=O)[O-])cc1` [Formula I: H, 4-NO2 Ph, CH3, SCN], the IC50 at CRF receptor (setting [3]) was 32 µM; in assay [1], 69.3 µM. Consider `CCCn1c(C)c(SC#N)c(=O)n1-c1ccccc1` [Formula I: Ph, (CH2)2 CH3, CH3, SCN, 3-methyl-5-oxo-1-phenyl-2-propyl-3-pyrazolin-4-yl thiocyanate], for which the IC50 came out at 32 µM at CRF receptor (setting [2]) and 16.9 µM in assay [1]. Consider `CCn1c(C)c(SC#N)c(=O)n1-c1ccccc1` [Formula I: Ph, C2 H5, CH3, SCN, 2-ethyl-3-methyl-5-oxo-1-phenyl-3-pyrazolin-4-yl thiocyanate], for which the IC50 on CRF receptor (setting [3]) is 12.2 µM; in assay [1], 6.5 µM.

In the case of `Cn1c(CN2CCOCC2)c(SC#N)c(=O)n1-c1ccccc1` [Formula I: Ph, CH3, MorCH2, SCN, 2-methyl-3-mopholinomethyl-5-oxo-1-phenyl-3-pyrazolin-4-yl thiocyanate], on CRF receptor (setting [3]), the IC50 is 39.8 µM. On to `Cc1c(SSc2c(C)n(C)n(-c3ccc4ccccc4c3)c2=O)c(=O)n(-c2ccc3ccccc3c2)n1C` [Formula II: 2-Naphthyl, CH3, CH3, HCl, 2,3-dimethyl-1-naphthyl-5-oxo-3-pyrazolin-4-yl disulfide], for which the IC50 on CRF receptor (setting [4]) came to 3.3 µM.

Regarding `Cc1c(SSc2c(C)n(C)n(-c3ccc(I)cc3)c2=O)c(=O)n(-c2ccc(I)cc2)n1C` [Formula II: 4-IPh, CH3, CH3, 2,3-dimethyl-5-oxo-1-(4-iodophenyl)-3-pyrazolin-4-yl disulfide], the IC50 on CRF receptor (setting [4]) came out at 5.1 µM. Same read-out and setting: next, `Cc1c(SSc2c(C)n(C)n(-c3cccc(Cl)n3)c2=O)c(=O)n(-c2cccc(Cl)n2)n1C` [Formula II: 6-Cl-2-Pyr, CH3, CH3, 2,3-dimethyl-5-oxo-1-(6-chloro-2-pyridyl)-3-pyrazolin-4-yl disulfide]: 4.3 µM; `Cn1c(CN2CCOCC2)c(SSc2c(CN3CCOCC3)n(C)n(-c3ccccc3)c2=O)c(=O)n1-c1ccccc1` [Formula II: Ph, CH3, MorCH2, 2HCl, 2-methyl-3-morpholinylmethyl-5-oxo-1-phenyl-3-pyrazolin-4-yl disulfide]: 8.2 µM.
